According to a melting point compilation (Tetko et al.; mined from patent text by program, amines drawn as free bases though some values may be those of a salt):
Non-standard residues stand in square brackets, D forms with d. Residues, ends and D or L forms follow the SMILES beside them. ξ: configuration not given here. *: point of attachment. ξPhe(4-F) = NC(Cc1ccc(F)cc1)C(=O)O; Boc = CC(C)(C)OC(=O)*

Structure (SMILES) | melting point [°C]
Cn1c(=O)c2c(nc3n2CC(O)CN3)n(C)c1=O (stereo not given) | 360
c1ccc2nc(COc3ccc(Cc4nnn[nH]4)cc3)ccc2c1 | 173 to 175
CC=Cc1cccc2c(=O)c(C)c(-c3ccc(OC)cc3)oc12 | 169 to 171
CC(C)(C)c1cc(C2SCC(=O)N2CCC(=O)O)cc(C(C)(C)C)c1O (stereo not given) | 164 to 165
COc1cccc(Nc2ncc(C(=O)O)c(=O)[nH]2)c1 | 247 to 249
O=C1c2ccccc2C(=O)C1(CCN1CCC(c2noc3cc(F)ccc23)CC1)c1ccccc1 | 149 to 150
COC1=c2ccccc2=c2ccc(Cl)cc2=C(c2ccccc2F)N1 | 136 to 138
CCc1nc(NC(=O)c2cnn3c(C(F)F)cc(-c4ccc(C(F)(F)F)cc4)nc23)sc1S(=O)(=O)N1CCC(O)C1 (racemic) | 286
COc1cc2c(CC#N)c(Br)[nH]c2cc1Br | 169 to 171
COC(=O)CS(=O)(=O)Nc1ccc(F)c(C(F)(F)F)c1 | 111 to 112
CC1=CC2C(CC1)C(c1ccc(F)cc1)=NC(=O)N2C(C)C (stereo not given) | 154 to 158
O=C(NCc1ncc[nH]1)c1[nH]c2ccc(Cl)cc2c1S(=O)(=O)c1ccccc1 | 276 to 278
CCCONC(=O)c1c(Cl)ccc(C(=O)OC)c1Cl | 80 to 81
Cc1cccc(-c2nc(N)c3ccccc3n2)n1 | 201
NC(=O)c1ccc(Nc2nc(N)nc(Cc3c(Cl)ccc4[nH]ccc34)n2)cc1 | 204 to 205
CCc1ncnc(NC2CCC(c3ccc(Oc4ccc(C(F)(F)F)cn4)cc3)CC2)c1Cl (stereo not given) | 114 to 116
O=C1CCC2=C(c3ccc(Cl)cc3)c3ccccc3C2N1 (stereo not given) | 236 to 238
CCCCc1cn(Cc2ccc(-c3ccccc3C(=O)O)cc2)c2cccc(SC)c2c1=O | 155
CC(C)(C)c1csc(-c2cc3cc(Cn4c(C(N)=O)cc5ccccc54)ccc3o2)n1 | 151 to 152
Cn1ncnc1COc1nn2c(-c3ccccc3F)nnc2cc1C1CCCO1 (stereo not given) | 136 to 139
CCCCOCCOc1ccc(-c2ccc3c(c2)C=C(C(=O)O)CCN3c2ccc(S(N)(=O)=O)cc2)cc1 | 185 to 195
O=c1c2ccccc2oc2cc(OCC3CO3)ccc12 (stereo not given) | 157 to 158
CC(=O)c1cccc(Nc2c3ccccc3nc3occc23)c1 | 158 to 159
O=C(OCc1ccc(-c2ccc(N3C[C@H](Cn4ccnn4)OC3=O)cc2F)cn1)N1CCOCC1 | 131 to 133
c1ccc(NC2CCc3ccccc3C2)cc1 (stereo not given) | 193 to 196

Structure (SMILES) | melting point [°C]
COc1ccc(-c2sc3c(c2OC(C)=O)CCCc2ccccc2-3)cc1 | 154
CN(C)C(=O)N(c1ccc(OC(F)(F)F)c(Cl)c1)C(C(=O)O)c1ccc(Cl)cc1 (stereo not given) | 77
O=C(Cc1c(C(=O)c2ccccc2)[nH]c2cc(Cl)ccc12)NCCO | 178 to 180
CCCCC(=O)c1ncc(-c2ccccn2)o1 | 36 to 37
O=C1C(=Cc2ccccc2)CS(=O)CC1=Cc1ccccc1 (stereo not given) | 155 to 160
Cc1cc(C)cc(COC(=O)[C@H](Cc2ccc3ccccc3c2)NC(=O)OC(C)(C)C)c1 | 84 to 86
COc1ccc(C2COc3cc(OC(C)=O)c(OC(C)=O)cc3C2)cc1 (stereo not given) | 104
Nc1cc(Oc2ccc(NC(=O)Nc3ccc(-c4ccncc4)c(C(F)(F)F)c3)cc2)ncn1 | 131 to 135
Oc1ccc(-c2ccc3c(-c4ccccc4)c(O)ccc3c2)cc1 | 142 to 146
C=CCn1c(=O)c2c(nc(/C=C/c3cc(OC)c(OC)c(OC)c3)n2C)n(CC=C)c1=O | 189 to 191
O=C1c2ccccc2CN1c1ccc(CCN2CCN(c3nsc4ccccc34)CC2)cc1 | 176
CCNC(=O)C(Cc1ccc(F)cc1)NC(=O)CNC(=O)OC(C)(C)C (stereo not drawn) (Boc-Gly-[ξPhe(4-F)]-NHEt) | 181 to 182
C[C@@H](C(N)=O)c1ccc(NS(=O)(=O)c2ccc(C(F)(F)F)cc2)cc1 | 178 to 180
COc1cc(CN2C(=O)C3(COc4cc5c(cc43)OCCO5)c3ccccc32)cc(OC)c1 (stereo not given) | 192 to 195
COc1cc(C(OC(C)=O)C(COC(C)=O)[N+](=O)[O-])cc(OC)c1OC (stereo not given) | 107 to 109
COCc1noc(-c2ncn3c2CN(C)C(=O)c2c(Cl)cccc2-3)n1 | 213 to 215
CCOn1cnc2c(N)nc3ccccc3c21 | 179 to 181
CC(C)COC(=O)N1CCN(c2c(C(=O)N3CCN(C)CC3)c3ccccc3n2-c2ccccc2)CC1 | 132 to 133
Cc1c(CC2CCc3c(c4ccccc4n3CC3CCCC3)C2=O)ncn1C(c1ccccc1)(c1ccccc1)c1ccccc1 (stereo not given) | 177 to 179
Nc1c(CC(=O)O)cc(Cl)cc1Oc1ccccc1F | 154 to 156
CC(C)(C)OC(=O)NCc1ccc([N+](=O)[O-])cc1 | 110 to 111
CN(C)CCNC(=O)c1ccc(-c2ccccc2CSCCOc2ccccc2)cc1 | 93 to 96
NS(=O)(=O)Oc1cccc([N+](=O)[O-])c1 | 118 to 120
CCOC(=O)c1ncn(-c2nccs2)c1Cl | 128 to 131
CCOc1cc(N)c([N+](=O)[O-])cc1NCCO | 157 to 158
